# According to patent US10131652B2, “Pyrimidinyloxy benzene derivatives as herbicides” (E. I. DU PONT DE NEMOURS AND COMPANY, priority 2014, dated 2018):
# Where two headings read alike, the source gives them in different places.
# Tests used:
# Format in all cases: in vivo
# [1] = system: winter wheat (Triticum aestivum); test: Test D pre-/postemergence plant response; conditions: Triticum aestivum; for plant injury at 16 g/ha: 16 g ai/ha; for plant injury at 31 g/ha: 31 g ai/ha; for plant injury at 62 g/ha: 62 g ai/ha; for plant injury at 125 g/ha: 125 g ai/ha
# How it was run: (§1)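 Two application timings were run together: preemergence onto seeded loam–sand pots, and postemergence onto 1- to 4-leaf plants (2 to 18 cm) in peat/vermiculite medium with starter nutrients. Formulation was a non-phytotoxic solvent with surfactant. Ratings, 0 to 100, were made visually versus controls after 13 to 15 greenhouse days.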
# [2] = system: lambsquarters (Chenopodium album); test: Test D pre-/postemergence plant response; conditions: Chenopodium album; for pest or weed control at 16 g/ha: 16 g ai/ha; for pest or weed control at 31 g/ha: 31 g ai/ha; for pest or weed control at 62 g/ha: 62 g ai/ha; for pest or weed control at 125 g/ha: 125 g ai/ha
# How it was run: as §1
# [3] = system: galium (catchweed bedstraw, Galium aparine); test: Test D pre-/postemergence plant response; conditions: Galium; for pest or weed control at 16 g/ha: 16 g ai/ha; for pest or weed control at 31 g/ha: 31 g ai/ha; for pest or weed control at 62 g/ha: 62 g ai/ha; for pest or weed control at 125 g/ha: 125 g ai/ha
# How it was run: as §1
# [4] = system: Italian ryegrass (Lolium multiflorum); test: Test D pre-/postemergence plant response; conditions: Lolium multiflorum; for pest or weed control at 16 g/ha: 16 g ai/ha; for pest or weed control at 31 g/ha: 31 g ai/ha; for pest or weed control at 62 g/ha: 62 g ai/ha; for pest or weed control at 125 g/ha: 125 g ai/ha
# How it was run: as §1
# corn (Zea mays) = test: Test D pre-/postemergence plant response; conditions: Zea mays; for Corn plant response rating (crop injury, 0 = no effect, 100 = complete kill) at 62 g/ha: 62 g ai/ha
# How it was run: as §1
# [5] = system: oilseed rape (Brassica napus); test: Test D pre-/postemergence plant response; conditions: Brassica napus; for plant injury at 16 g/ha: 16 g ai/ha; for plant injury at 31 g/ha: 31 g ai/ha; for plant injury at 62 g/ha: 62 g ai/ha; for plant injury at 125 g/ha: 125 g ai/ha
# How it was run: as §1
# [6] = system: velvetleaf (Abutilon theophrasti); test: Test D pre-/postemergence plant response; conditions: Abutilon theophrasti; for pest or weed control at 16 g/ha: 16 g ai/ha; for pest or weed control at 31 g/ha: 31 g ai/ha; for pest or weed control at 62 g/ha: 62 g ai/ha; for pest or weed control at 125 g/ha: 125 g ai/ha
# How it was run: as §1
# kochia (Kochia scoparia) = test: Test B pre-/postemergence plant response
# How it was run: (§2)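 Visual injury scores on a 0–100 scale (100 = complete control) relative to untreated plants, taken about 10 days post-treatment in greenhouse. Treatments were a directed preemergence soil spray and a postemergence spray at one- to two-leaf stage, using surfactant-containing solvent formulation.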
# [7] = system: Italian ryegrass (Lolium multiflorum); test: Test B pre-/postemergence plant response
# How it was run: as §2
# [8] = system: ragweed (common ragweed, Ambrosia elatior); test: Test B pre-/postemergence plant response
# How it was run: as §2
# [9] = system: small-flower umbrella sedge (Cyperus difformis); test: Test C flooded paddy test plant response; conditions: Cyperus difformis; Flood, 250 g ai/ha; scale of 0 to 100 where 0 is no effect and 100 is complete control; 13 to 15 days; read-out: Sedge, Umbrella plant response rating
# How it was run: (§3)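 Readout is a visual 0–100 score (100 = complete control) versus controls at 13–15 days. Plants at 2-leaf stage, flooded to 3 cm, treated through paddy water.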
# [10] = system: barnyardgrass (Echinochloa crus-galli); test: Test C flooded paddy test plant response; conditions: Echinochloa crus-galli; Flood, 250 g ai/ha; scale of 0 to 100 where 0 is no effect and 100 is complete control; 13 to 15 days; read-out: Barnyardgrass plant response rating
# How it was run: as §3
# [11] = system: ducksalad (Heteranthera limosa); test: Test C flooded paddy test plant response; conditions: Heteranthera limosa; Flood, 250 g ai/ha; scale of 0 to 100 where 0 is no effect and 100 is complete control; 13 to 15 days; read-out: Ducksalad plant response rating
# How it was run: as §3
# rice (Oryza sativa) = test: Test C flooded paddy test plant response; conditions: Oryza sativa; Flood, 250 g ai/ha; scale of 0 to 100 where 0 is no effect and 100 is complete control; 13 to 15 days; read-out: Rice plant response rating
# How it was run: as §3
# [12] = post-emergence, Postemergence, scale 0 to 100 (0 no effect, 100 complete control), read-out: Wheat plant response rating
# [13] = post-emergence, Postemergence, scale 0 to 100, 0 no effect, 100 complete control, read-out: Plant response rating, Wheat
# [14] = pre-emergence, Preemergence, scale 0 to 100 (0 no effect, 100 complete control), read-out: Plant response rating, Wheat
# [15] = post-emergence, Postemergence, scale 0 to 100 (0 no effect, 100 complete control), read-out: Lambsquarters plant response rating
# [16] = post-emergence, Postemergence, scale 0 to 100, 0 no effect, 100 complete control, read-out: Plant response rating, Lambsquarters
# [17] = pre-emergence, Preemergence, scale 0 to 100 (0 no effect, 100 complete control), read-out: Plant response rating, Lambsquarters
# [18] = post-emergence, Postemergence, scale 0 to 100 (0 no effect, 100 complete control), read-out: Galium plant response rating
# [19] = post-emergence, Postemergence, scale 0 to 100, 0 no effect, 100 complete control, read-out: Plant response rating, Galium
# [20] = pre-emergence, Preemergence, scale 0 to 100 (0 no effect, 100 complete control), read-out: Plant response rating, Galium
# [21] = post-emergence, Postemergence, scale 0 to 100 (0 no effect, 100 complete control), read-out: Ryegrass, Italian plant response rating
# [22] = post-emergence, Postemergence, scale 0 to 100, 0 no effect, 100 complete control, read-out: Plant response rating, Ryegrass, Italian
# [23] = pre-emergence, Preemergence, scale 0 to 100 (0 no effect, 100 complete control), read-out: Plant response rating, Ryegrass, Italian
# [24] = post-emergence, Postemergence, scale 0 to 100 (0 no effect, 100 complete control), read-out: Oilseed Rape plant response rating
# [25] = post-emergence, Postemergence, scale 0 to 100, 0 no effect, 100 complete control, read-out: Plant response rating, Oilseed Rape
# [26] = pre-emergence, Preemergence, scale 0 to 100 (0 no effect, 100 complete control), read-out: Plant response rating, Oilseed Rape
# [27] = post-emergence, Postemergence, scale 0 to 100 (0 no effect, 100 complete control), read-out: Velvetleaf plant response rating
# [28] = post-emergence, Postemergence, scale 0 to 100, 0 no effect, 100 complete control, read-out: Plant response rating, Velvetleaf
# [29] = pre-emergence, Preemergence, scale 0 to 100 (0 no effect, 100 complete control), read-out: Plant response rating, Velvetleaf
# [30] = 125 g ai/ha, postemergence, 0 to 100 scale, 0 no effect, 100 complete control
# [31] = Postemergence, 500 g ai/ha, 0 to 100 scale (0 no effect, 100 complete control)
# [32] = Preemergence, 125 g ai/ha, 0 to 100 scale where 0 is no effect and 100 is complete control
# [33] = Preemergence, 500 g ai/ha, 0 to 100 scale where 0 is no effect and 100 is complete control
smiles,measurement,setting,value
"FC(F)c1cc(-c2ccccc2Oc2ncc(Cl)cn2)on1 [Compound 53, 5-chloro-2-[2-[3-(difluoromethyl)-5-isoxazolyl]phenoxy]pyrimidine]",plant injury at 16 g/ha,[1]; [12],0%
same,plant injury at 31 g/ha,[1]; [12],0%
same,plant injury at 62 g/ha,[1]; [13],0%
same,plant injury at 125 g/ha,[1]; [13],0%
same,plant injury at 125 g/ha,"[1]; pre-emergence, Preemergence, read-out: Plant response rating (scale 0 to 100), Wheat",5%
same,plant injury at 16 g/ha,[1]; [14],0%
same,plant injury at 31 g/ha,[1]; [14],0%
same,plant injury at 62 g/ha,[1]; [14],0%
same,pest or weed control at 16 g/ha,[2]; [15],70%
same,pest or weed control at 31 g/ha,[2]; [15],80%
same,pest or weed control at 62 g/ha,[2]; [16],100%
same,pest or weed control at 125 g/ha,[2]; [16],100%
same,pest or weed control at 125 g/ha,"[2]; pre-emergence, Preemergence, read-out: Plant response rating (scale 0 to 100), Lambsquarters",100%
same,pest or weed control at 16 g/ha,[2]; [17],100%
same,pest or weed control at 31 g/ha,[2]; [17],100%
same,pest or weed control at 62 g/ha,[2]; [17],100%
same,pest or weed control at 16 g/ha,[3]; [18],60%
same,pest or weed control at 31 g/ha,[3]; [18],85%
same,pest or weed control at 62 g/ha,[3]; [19],95%
same,pest or weed control at 125 g/ha,[3]; [19],90%
same,pest or weed control at 125 g/ha,"[3]; pre-emergence, Preemergence, read-out: Plant response rating (scale 0 to 100), Galium",98%
same,pest or weed control at 16 g/ha,[3]; [20],85%
same,pest or weed control at 31 g/ha,[3]; [20],95%
same,pest or weed control at 62 g/ha,[3]; [20],100%
same,pest or weed control at 16 g/ha,[4]; [21],0%
same,pest or weed control at 31 g/ha,[4]; [21],5%
same,pest or weed control at 62 g/ha,[4]; [22],5%
same,pest or weed control at 125 g/ha,[4]; [22],5%
same,pest or weed control at 125 g/ha,"[4]; pre-emergence, Preemergence, read-out: Plant response rating (scale 0 to 100), Ryegrass, Italian",60%
same,pest or weed control at 16 g/ha,[4]; [23],0%
same,pest or weed control at 31 g/ha,[4]; [23],10%
same,pest or weed control at 62 g/ha,[4]; [23],15%
same,plant injury at 16 g/ha,"corn (Zea mays); post-emergence, Postemergence, 16 g ai/ha, scale 0 to 100 (0 no effect, 100 complete control), read-out: Corn plant response rating",0%
same,plant injury at 31 g/ha,"corn (Zea mays); post-emergence, Postemergence, 31 g ai/ha, scale 0 to 100 (0 no effect, 100 complete control), read-out: Corn plant response rating",0%
same,"Corn plant response rating (crop injury, 0 = no effect, 100 = complete kill) at 62 g/ha","corn (Zea mays); post-emergence, Postemergence, scale 0 to 100, 0 no effect, 100 complete control",0%
same,"Corn plant response rating (crop injury, 0 = no effect, 100 = complete kill) at 125 g/ha","corn (Zea mays); post-emergence, Postemergence, 125 g ai/ha, scale 0 to 100, 0 no effect, 100 complete control",0%
same,plant injury at 125 g/ha,"corn (Zea mays); pre-emergence, Preemergence, 125 g ai/ha, read-out: Plant response rating (scale 0 to 100), Corn",5%
same,"Corn plant response rating (crop injury, 0 = no effect, 100 = complete kill) at 16 g/ha","corn (Zea mays); pre-emergence, Preemergence, 16 g ai/ha, scale 0 to 100 (0 no effect, 100 complete control)",5%
same,"Corn plant response rating (crop injury, 0 = no effect, 100 = complete kill) at 31 g/ha","corn (Zea mays); pre-emergence, Preemergence, 31 g ai/ha, scale 0 to 100 (0 no effect, 100 complete control)",10%
same,"Corn plant response rating (crop injury, 0 = no effect, 100 = complete kill) at 62 g/ha","corn (Zea mays); pre-emergence, Preemergence, scale 0 to 100 (0 no effect, 100 complete control)",100%
same,plant injury at 16 g/ha,[5]; [24],70%
same,plant injury at 31 g/ha,[5]; [24],80%
same,plant injury at 62 g/ha,[5]; [25],95%
same,plant injury at 125 g/ha,[5]; [25],85%
same,plant injury at 125 g/ha,"[5]; pre-emergence, Preemergence, read-out: Plant response rating (scale 0 to 100), Oilseed Rape",100%
same,plant injury at 16 g/ha,[5]; [26],80%
same,plant injury at 31 g/ha,[5]; [26],100%
same,plant injury at 62 g/ha,[5]; [26],100%
same,pest or weed control at 16 g/ha,[6]; [27],55%
same,pest or weed control at 31 g/ha,[6]; [27],60%
same,pest or weed control at 62 g/ha,[6]; [28],70%
same,pest or weed control at 125 g/ha,[6]; [28],100%
same,pest or weed control at 125 g/ha,"[6]; pre-emergence, Preemergence, read-out: Plant response rating (scale 0 to 100), Velvetleaf",100%
same,pest or weed control at 16 g/ha,[6]; [29],100%
same,pest or weed control at 31 g/ha,[6]; [29],100%
same,pest or weed control at 62 g/ha,[6]; [29],100%
same,"Plant response rating, Kochia",kochia (Kochia scoparia); [30],100
same,"Plant response rating, Kochia",kochia (Kochia scoparia); [31],100
same,"Plant response rating, Kochia",kochia (Kochia scoparia); [32],100
same,"Plant response rating, Kochia",kochia (Kochia scoparia); [33],100
same,"Plant response rating, Ryegrass, Italian",[7]; [30],80
same,"Plant response rating, Ryegrass, Italian",[7]; [31],100
same,"Plant response rating, Ryegrass, Italian",[7]; [32],10
same,"Plant response rating, Ryegrass, Italian",[7]; [33],40
same,"Plant response rating, Ragweed",[8]; [30],60
same,"Plant response rating, Ragweed",[8]; [31],90
same,"Plant response rating, Ragweed",[8]; [32],10
same,"Plant response rating, Ragweed",[8]; [33],50
same,pest or weed control at 250 g/ha,[9],75%
same,pest or weed control at 250 g/ha,[10],20%
same,pest or weed control at 250 g/ha,[11],80%
same,plant injury at 250 g/ha,rice (Oryza sativa),20%
